≈ marks a conversion by molar mass, not a printed value.
Assays:
LRRK2 = LRRK2 (Homo sapiens (Human), UniProt Q5S007); test: LRRK2 Kinase Assay; assay type: biochemical; conditions: 10 μM ATP
Procedure: (§1) Briefly, specific kinase/substrate pairs along with required cofactors were prepared in reaction buffer; 20 mM Hepes (pH 7.5), 10 mM MgCl2, 1 mM EGTA, 0.02% Brij35, 0.02 mg/ml BSA, 0.1 mM Na3VO4, 2 mM DTT, 1% DMSO. Compounds were delivered into the reaction, followed ˜20 min later by addition of a mixture of ATP (Sigma) and 33P ATP (PerkinElmer) to a final concentration of 10 μM. […] IC50 values and curve fits were obtained using Prism (GraphPad Software). Kinome tree representations were prepared using Kinome Mapper (http://www.reactionbiology.com/apps/kinome/mapper/Launch Kinome.htm).
For the wild type LRRK the 2×LRRK2/ERM (LRRKtide) mixture was prepared in 50 mM Tris pH 8.5, 0.01% BRIJ-35, 10 mM MgCl2, 1 mM EGTA, 0.02% NaN3. […] After 1 hour Kinase Reaction incubation, 5 μL of Detection Mix was added.

LRRK2 G2019S = LRRK2 G2019S (Homo sapiens (Human), UniProt Q5S007, G2019S); test: LRRK2 G2019S Kinase Assay; assay type: biochemical; conditions: 10 μM ATP
Procedure: Procedure: Enzyme was incubated with substrate peptide in reaction buffer in the presence and absence of test compounds or Staurosporine. All additions were done on ice, followed by the addition of ATP mix. Wells were uniformly mixed using an Eppendorff plate shaker and incubated at 30° C. for 20 min, and stopped by the addition of 5 μl of 3% phosphoric acid. Volume was increased to 100 μl by adding 0.8% phosphoric acid which was then transferred to PC filter mats (Millipore), pre-equilibrated with 70% ethanol and water. Plates were washed thrice with 100 μl 0.8% phosphoric acid and dried for an hour at 60° C. 100 μl scintillation fluid was added into each well and reading taken in Perkin Elmer TOPCOUNT beta counter. […] A validation EC50 curve was generated by plotting CPM for each Staurosporine concentration on y-axis against the Log concentration of Staurosporine (nM) on the x-axis followed by a best fit curve through the points.
After 1 hour Kinase Reaction incubation, 5 μL of Detection Mix was added.

DYRK1A = DYRK1A (Homo sapiens (Human), UniProt Q13627); test: In vitro DYRK1A inhibition assay; assay type: biochemical
Procedure: as §1
The 2×DYRK1A/Ser/Thr 18 mixture was prepared in 50 mM HEPES pH 7.5, 0.01% BRIJ-35, 10 mM MgCl2, 1 mM EGTA.

[1] = test system: 299 protein kinases+17 additional preview kinases; test: Protein Kinase Selectivity Profiler; assay type: biochemical, human; conditions: 10 μM ATP; for % enzyme inhibition relative to DMSO controls: LRRK2, LRRK2 G2019S, CHK1, DYRK1A, FLT3, MLK1, TNIK, TRKA, single dose 0.5 μM, 1 μM
Procedure: In vitro profiling of the 317 member kinase panel was performed at Reaction Biology Corporation using the “HotSpot” assay platform. Briefly, specific kinase/substrate pairs along with required cofactors were prepared in reaction buffer; 20 mM Hepes (pH 7.5), 10 mM MgCl2, 1 mM EGTA, 0.02% Brij35, 0.02 mg/ml BSA, 0.1 mM Na3VO4, 2 mM DTT, 1% DMSO. Compounds were delivered into the reaction, followed ˜20 min later by addition of a mixture of ATP (Sigma) and 33P ATP (PerkinElmer) to a final concentration of 10 μM. Reactions were carried out at 25° C. for 120 min, followed by spotting of the reactions onto P81 ion exchange filter paper (Whatman). Unbound phosphate was removed by extensive washing of filters in 0.75% phosphoric acid. […] IC50 values and curve fits were obtained using Prism (GraphPad Software). Kinome tree representations were prepared using Kinome Mapper (http://www.reactionbiology.com/apps/kinome/mapper/Launch Kinome.htm). Specifically for the LRRK2 enzyme the substrate LRRKtide (gene bank and protein access numbers NP_940980.2 Q5S007) and clone aa 970-2527 expressed in baculovirus in insect cells with N-terminal GST tag was employed in the study protocol. In the case of DYRK1A (SEQ ID NO 16) the substrate casein (gene bank and protein access numbers NP_001387 Q13627) full length clone expressed in insect with n-terminal tag was used.
A control compound was tested in 10-dose IC50 mode with 3-fold serial dilution starting at 20 μM. Reactions were carried out at 10 μM ATP. Data pages include raw data, % Enzyme activity (relative to DMSO controls), and curve fits.

[2] = test system: MPTP-injected C57 black mice; test: MPTP mouse model of Parkinson's disease, oral pre-treatment; assay type: in vivo; conditions: for protection against MPTP-induced TH cell loss and dopaminergic degeneration in substantia nigra and striatum: 10 mg/kg and 30 mg/kg oral; for locomotor activities in MPTP-injected mice / striatal dopamine levels in MPTP treated mice: orally administered, pre-treatment
[3] = test system: MPTP-injected C57 black mice; test: MPTP mouse model, intravenous pre-treatment; assay type: in vivo; conditions: 5 mg/kg i.v.
Procedure: 24 C57 black mice (C57/bl6, 6-8 week old, and 25-30 g) were purchased from Charles River Laboratories, Ohio. […] Prior to treatment animals were pre-trained on rotarod for at least 3 minutes every day for three successive days. Test compound (5 mg/kg) was administered intravenously to group C animals, 24 h prior to MPTP-injection and continued daily for additional 11 days. MPTP was dissolved in PBS and injected intraperitoneally (i.p.) at doses of 25 mg/kg, once daily for 5 days to group B and C animals. Group A animals were injected with saline (i.p.) to be used as controls. Urine and Faeces were collected on Day 8, behavioural studies were performed on Day 9 (4-days post-MPTP). On day 12 (7 days post-MPTP), 4 animals/group were sacrificed, different brains regions including striatum and substantia nigra were dissected. Left striatum were used for neurochemical analysis. Other 4 animals/group were perfused and used for TH immunohistological studies.

in vivo = conditions: male, Sprague Dawley, rat
Text: To investigate the pharmacokinetic profiles of test compound following intravenous bolus administration and oral gavage in male Sprague Dawley rats.

[4] = test system: MPTP-injected C57 black mice; test: MPTP mouse model, post-treatment study; assay type: in vivo; conditions: post-administration, oral and i.v routes
Procedure: 32 C57 black mice (C57/bl6, 6-8 week old, 25-30 g) were purchased from Charles River Laboratories, Ohio. […] All animals were housed in Laboratory of Animal Resources vivarium at Iowa State University under standard conditions: constant temperature (22±1° C.), humidity (relative, 30%), and a 12-h light/dark cycle. Mice were allowed free access to food and water. Use of the animals and protocol procedures were approved and supervised by the Committee on Animal Care at Iowa State University (Ames, Iowa). Test compounds were dissolved in PBS for this study. Prior to treatment animals were pre-trained on rotarod for at least 3 minutes every day for three successive days. Group A animals were injected with saline (i.p.) to be used as controls. MPTP was dissolved in PBS and injected intraperitoneally (i.p.) at doses of 25 mg/kg, once daily for 5 days to group B, C and D animals. On day 4, prior to 4th MPTP injection, group C animals received test compounds (30 mg/kg, oral) daily for eight days. Similarly, on day 4, prior to 4th MPTP injection, group D animals received test compounds (5 mg/kg, i.v) daily for eight days. On day 9 (Post-test compounds administration) or day 12 (7 days post-MPTP), 4 animals/group were sacrificed, different brain regions including striatum and substantia nigra were dissected. Left striatum were used for neurochemical analysis. Other 4 animals/group were perfused and used for TH immunohistological studies.

[5] = test system: Rat hepatoma (H4IIE) cell line; test: In vitro toxicology, general cytotoxicity; assay type: cell-based; conditions: 24 hrs
Procedure: Cells were seeded into 96-well plates and cultured in medium containing 20% bovine serum. […] General cytotoxicity was evaluated by monitoring membrane integrity (MBR, cell supernatant), cell mass (PI) and mitochondrial function (cellular ATP levels). Rotenone was included as a positive control because it produces measurable effects in all three assays. DMSO at 0.5% in medium was included as a negative control. Three wells per exposure concentration were used in each assay. Results are summarized in Table 8 and are expressed as percent of control, with control values set at 100%. […] Test compounds 13 and 13 HCl were rank-ordered from most to least toxic based on individual membrane integrity and ATP responses as well as resultant TC50 values.
Test compounds 13 and 13 HCl were rank-ordered from highest to lowest probability of producing toxicity based first on membrane toxicity, then on ATP, and finally on cell mass (PI). It is important to note that within a given grouping compounds may be classified as to their primary effect being either cytotoxic, cytostatic, or reducing mitochondrial function. In general, compound responses above 80% of vehicle control are considered to be low-to-no effect, moderates generally rank 80% to 50% of vehicle control, and those compounds that cross the 50% mark are considered to have higher probability of toxicity.

Chain of LRRK2 G2019S (Q5S007 970-2527 G2019S): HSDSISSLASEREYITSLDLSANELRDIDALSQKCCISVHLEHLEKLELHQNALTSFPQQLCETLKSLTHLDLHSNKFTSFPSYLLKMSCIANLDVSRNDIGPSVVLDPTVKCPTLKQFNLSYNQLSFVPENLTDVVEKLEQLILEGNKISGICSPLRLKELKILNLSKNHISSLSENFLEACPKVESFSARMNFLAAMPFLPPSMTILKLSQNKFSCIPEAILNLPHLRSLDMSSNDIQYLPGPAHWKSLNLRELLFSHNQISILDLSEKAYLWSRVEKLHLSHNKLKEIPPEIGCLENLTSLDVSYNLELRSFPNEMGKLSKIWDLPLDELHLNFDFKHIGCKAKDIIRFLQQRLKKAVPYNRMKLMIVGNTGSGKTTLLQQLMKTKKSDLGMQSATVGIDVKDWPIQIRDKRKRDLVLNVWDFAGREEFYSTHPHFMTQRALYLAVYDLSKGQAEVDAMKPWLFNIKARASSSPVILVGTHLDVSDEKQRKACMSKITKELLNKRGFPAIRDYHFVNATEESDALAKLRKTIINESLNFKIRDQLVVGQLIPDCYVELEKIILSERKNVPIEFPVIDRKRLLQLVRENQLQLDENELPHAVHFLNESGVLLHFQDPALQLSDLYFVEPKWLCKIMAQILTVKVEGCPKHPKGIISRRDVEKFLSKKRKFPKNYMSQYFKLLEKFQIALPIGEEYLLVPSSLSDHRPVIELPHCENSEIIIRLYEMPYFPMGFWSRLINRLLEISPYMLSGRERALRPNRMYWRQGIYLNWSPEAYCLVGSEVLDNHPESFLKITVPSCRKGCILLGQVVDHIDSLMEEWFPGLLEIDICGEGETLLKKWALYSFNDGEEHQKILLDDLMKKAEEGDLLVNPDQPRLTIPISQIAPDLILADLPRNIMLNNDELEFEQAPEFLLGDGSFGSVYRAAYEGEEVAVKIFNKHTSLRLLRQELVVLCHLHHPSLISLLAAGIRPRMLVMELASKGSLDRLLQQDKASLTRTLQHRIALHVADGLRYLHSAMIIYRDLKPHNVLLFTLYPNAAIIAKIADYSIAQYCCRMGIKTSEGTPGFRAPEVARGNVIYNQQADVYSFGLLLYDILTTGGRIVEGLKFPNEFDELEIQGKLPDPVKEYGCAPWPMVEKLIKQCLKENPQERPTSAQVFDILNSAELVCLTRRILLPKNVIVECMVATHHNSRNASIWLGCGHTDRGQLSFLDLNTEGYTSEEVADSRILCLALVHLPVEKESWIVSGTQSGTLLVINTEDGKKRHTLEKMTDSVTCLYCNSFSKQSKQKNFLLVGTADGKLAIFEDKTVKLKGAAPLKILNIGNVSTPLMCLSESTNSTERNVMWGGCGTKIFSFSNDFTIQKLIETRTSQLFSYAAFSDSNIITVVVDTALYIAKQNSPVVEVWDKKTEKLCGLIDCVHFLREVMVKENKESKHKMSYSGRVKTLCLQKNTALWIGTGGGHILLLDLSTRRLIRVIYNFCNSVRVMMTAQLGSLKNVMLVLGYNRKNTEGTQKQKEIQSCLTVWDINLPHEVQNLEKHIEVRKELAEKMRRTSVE
Chain of LRRK2 (Q5S007 970-2527): as the sequence (Q5S007 970-2527 G2019S) above, with S1050G counted along it

Compound	IC50 (LRRK2) [nM]	IC50 (LRRK2 G2019S) [nM]	IC50 (DYRK1A) [nM]	AUC(0-t) (in vivo; iv, 5 mg/kg) [ng·h/mL]	Vd (in vivo; iv, 5 mg/kg) [L/kg]	clearance (in vivo; iv, 5 mg/kg) [mL/min/kg]	half-life (in vivo; iv, 5 mg/kg) [h]	AUC(0-t) (in vivo; po, 30 mg/kg) [ng·h/mL]	Cmax (in vivo; po, 30 mg/kg) [ng/mL]	F (in vivo; po, 30 mg/kg) [%]	Tmax (in vivo; po, 30 mg/kg) [h]	% enzyme inhibition relative to DMSO controls [1]	protection against MPTP-induced TH cell loss and dopaminergic degeneration in substantia nigra and striatum [2]	locomotor activities in MPTP-injected mice [2]	striatal dopamine levels in MPTP treated mice [2]	protection against MPTP-induced TH neuronal loss in the substantia nigra and in the striatum [3]	also measured
C=C(C)[C@H]1Cc2c(ccc3c2O[C@@H]2COc4cc(OC)c(OC)cc4[C@@H]2C3=O)O1 [Rotenone, reference compound]																	ATP % Control ([5]; 0.001 μM): 98%; Cell Mass % Control ([5]; 0.001 μM): 105%; Mem Tox % Control ([5]; 0.001 μM): 100%; ATP % Control ([5]; 0.1 μM): 34%; Cell Mass % Control ([5]; 0.1 μM): 54%; Mem Tox % Control ([5]; 0.1 μM): 98%; ATP % Control ([5]; 1 μM): 4%; Cell Mass % Control ([5]; 1 μM): 25%; Mem Tox % Control ([5]; 1 μM): 46%; ATP TC50 [5]: 80 nM; Cell Mass TC50 [5]: 230 nM; Mem Tox TC50 [5]: 930 nM; solubility (physchem): 1 µM (≈ 0.394 µg/mL)
c1ccc2c(c1)CCN2c1cncc(-c2cnc3[nH]ccc3c2)n1 [Compound 134, 5-(6-(indolin-1-yl)pyrazin-2-yl)-1H-pyrrolo[2,3-b]pyridine]	< 500	< 500	< 500	1020	15.2	123	2.26	1040	133	24	6.7	5-15%	dose-dependent protection	Improve Locomotor Activities	Restore Striatal Dopamine Levels	Protect Against MPTP-Induced TH Neuronal Loss	
Cc1n[nH]c2ncc(-c3cccc(NC4CCN(C)CC4)n3)cc12 [Compound 102, 6-(3-methyl-1H-pyrazolo[3,4-b]pyridin-5-yl)-N-(1-methylpiperidin-4-yl)pyridin-2-amine]	> 500	> 500	> 500														

Further lines, with some results ahead:

IC50 (LRRK2) [nM]	IC50 (LRRK2 G2019S) [nM]	IC50 (DYRK1A) [nM]	AUC(0-t) (in vivo; iv, 5 mg/kg) [ng·h/mL]	Vd (in vivo; iv, 5 mg/kg) [L/kg]	clearance (in vivo; iv, 5 mg/kg) [mL/min/kg]	half-life (in vivo; iv, 5 mg/kg) [h]	AUC(0-t) (in vivo; po, 30 mg/kg) [ng·h/mL]	Cmax (in vivo; po, 30 mg/kg) [ng/mL]	F (in vivo; po, 30 mg/kg) [%]	Tmax (in vivo; po, 30 mg/kg) [h]	% enzyme inhibition relative to DMSO controls [1]	Compound	protection against MPTP-induced TH cell loss and dopaminergic degeneration in substantia nigra and striatum [2]	locomotor activities in MPTP-injected mice [2]	striatal dopamine levels in MPTP treated mice [2]	protection against MPTP-induced TH neuronal loss in the substantia nigra and in the striatum [3]	also measured
< 500	< 500	< 500	1020	15.2	123	2.26	1040	133	24	6.7		Cc1n[nH]c2ncc(-c3cncc(N(C)CC4CCOCC4)n3)cc12 [Compound 71, N-methyl-6-(3-methyl-1H-pyrazolo[3,4-b]pyridin-5-yl)-N-((tetrahydro-2H-pyran-4-yl)methyl)pyrazin-2-amine]	dose-dependent protection	Improve Locomotor Activities	Restore Striatal Dopamine Levels	Protect Against MPTP-Induced TH Neuronal Loss	activity against kinases in broader scope, relative to DMSO control ([1]; ABL1 T315I, ALK2, ARK5, Aurora A/B/C, BRAF, C-KIT, CLK1-4, CSF1R, DYRK1A-4, FLT3, GSK3β, JAK1-3, KDR, LCK ... TRKA-C, single dose): 5-15%
< 500	< 500	< 500	1020	15.2	123	2.26	1040	133	24	6.7	5-15%	Cc1n[nH]c2ncc(-c3cncc(N4CCOCC4)n3)cc12 [Compound 105, 4-(6-(3-methyl-1H-pyrazolo[3,4-b]pyridin-5-yl)pyrazin-2-yl)morpholine]	dose-dependent protection	Improve Locomotor Activities	Restore Striatal Dopamine Levels	Protect Against MPTP-Induced TH Neuronal Loss	protection against MPTP-induced histological deficits [4]: significantly protected; protection against MPTP-induced motor-deficits [4]: significantly protected; protection against MPTP-induced neurochemical deficits [4]: not against neurochemical deficits

— US9669028B2, “Substituted 5-(pyrazin-2-yl)-1H-pyrazolo [3, 4-B] pyridine and pyrazolo [3, 4-B] pyridine derivatives as protein kinase inhibitors” (Arrien Pharmaceuticals LLC, priority 2011, dated 2017)
